Key:
[1] = test system: uterine leiomyomata; assay: Clinical study of 2.5 mg mifepristone for the treatment of uterine leiomyomata (Example 1); assay type: in vivo, human; conditions: 2.5 mg daily, three months
Method: The study was conducted at a single site in Rochester, N.Y. Subjects: Inclusion criteria for the study included that subjects be (i) female; (ii) 18 years of age to premenopausal; and (iii) willing and able to give informed consent and comply with study requirements; and have (i) at least moderate symptoms of menorrhagia and/or pelvic pain/pressure; (ii) a total uterine volume greater than or equal to 160 cubic centimeters (cc) by ultrasound measurement; (iii) at least one leiomyomata ≧2.5 cm in size; (iv) a score of equal to or greater than 39 on the Uterine Fibroid Symptom and Quality of Life Scale; (v) declined standard treatment options for symptomatic leiomyomata; and (vi) agreed to use a barrier method (condoms, diaphragms) or other effective non-hormonal method of contraception (abstinence, sterilization) throughout participation in the study. Exclusion criteria for the study included: (i) current or planned pregnancy during the study period; (ii) menopausal, as indicated by follicle-stimulating hormone (FSH) level of the reference laboratory; (iii) currently breast-feeding; (iv) untreated abnormal pap smear; (v) presence of conditions other than leiomyomata contributing to pain and/or bleeding; (vi) hemoglobin […]; (vii) presence of […] masses or tenderness requiring further evaluation or surgery; (viii) grade III or IV hydronephrosis by ultrasound; (ix) severe, active mental disorder; […] (xi) current or recent (within the last three months) use of oral systemic corticosteroids, hormones (including estrogens, progestins, oral contraceptives), danazol, anticoagulants, or herbal or botanical supplements with possible hormonal effects; (xii) use within the past six months of GnRH analogs or Depo-Provera®; and (xiii) current or planned use during the study of any of the following medications or products: ketoconazole, itraconazole, erythromycin, grapefruit juice, rifampin, St. John's Wort, phenytoin, phenobarbital or carbamazepine Primary recruitment of subjects occurred through direct advertising and physician referrals. Women who were successfully prescreened were contacted by telephone and invited to an screening session/orientation. Prospective subjects were provided with a verbal and written description of the study and requirements for participation. Written informed consent was obtained from each participant at the screening session/orientation, and medical record releases were obtained and reviewed by the project gynecologist. Participants who gave consent were assigned a study ID number and asked to proceed further with the screening session. […] During the screening session the following information was collected: Physical Examination: Height, weight, blood pressure, pulse readings, examination of the breasts, heart, lungs, abdomen, and complete gynecologic examination including bi-manual at screening session/orientation (baseline). Height, weight, blood pressure, pulse readings and examination of the breasts. Blood samples: Negative pregnancy test and normal liver function testing (ALT, AST), hemoglobin and FSH levels. Ultrasonography: All subjects underwent abdominal and vaginal ultrasonography and uterine artery and leiomyomata blood flow assessment. Specifically, uterine leiomyomata size was assessed by transabdominal and/or transvaginal sonography by a single, certified and experienced ultrasonographer. Combined abdominal and vaginal ultrasonography was the standard for assessing leiomyomata size. […]

[2] = test system: breakthrough uterine bleeding in new starters of DMPA; assay: Mifepristone for prevention of breakthrough bleeding in new starters of DMPA (Example 9); assay type: in vivo, human; conditions: 50 mg capsule every 14 days with DMPA
[3] = test system: uterine leiomyomata; assay: Randomized, double-blinded, placebo-controlled study of mifepristone 5 mg daily for symptomatic uterine leiomyomata (Example 11); assay type: in vivo, human
Excerpt: The Study and Results are described in […] et al., Obstetrics & Gynecology, 108(6) (2006), hereby incorporated by reference in its entirety. […] Women were excluded if they were pregnant or intended to become pregnant during the next 6 months or had major medical morbidity or severe anemia, active mental illness, elevated liver enzymes, or substance abuse. Participants agreed to use barrier contraception and not to use hormonal or surgical treatments for leiomyomata during the course of the trial. Analgesic use was permitted. […] Secondary measures included global health status (Medical Outcomes 36-item Short Form [SF-36] survey) and global pain (McGill Pain Questionnaire). Each questionnaire was administered at baseline, 1 month, 3 months, and 6 months, except the McGill Pain Questionnaire, which was assessed monthly. Bleeding was assessed by using daily menstrual logs and pictorial bleeding charts. A monthly blood loss index was calculated from menstrual history by assigning values […] to each day of spotting, indicating light, moderate, and heavy flow, respectively, and then summing the results. Monthly assessments of the presence and intensity of likely leiomyoma symptoms (including pelvic pain, pelvic pressure, bladder pressure, urinary frequency, low back pain, rectal pain, and pain with intercourse) and drug adverse effects (including hot flushes, headache, nausea, vomiting, mood swings, diarrhea, decreased libido, weakness, fatigue, and nervousness) were performed with a standardized instrument consisting of 5-point Likert scale items. […] The uterus was measured in three planes and a total volume calculated. The five largest leiomyomata were identified, a volume calculated for each of the leiomyomata, and the results summed. Baseline uterine volume was subtracted from each subsequently measured uterine volume, and volume changes were analyzed. The final analysis was powered to detect a 25-point difference in mean Uterine Fibroid Symptom Quality of Life scores. Differences in Uterine Fibroid Symptom Quality of Life scores, ultrasound measures, bleeding, pain, and other longitudinal measures were assessed by using individual growth curve models. […] Approximate t tests were used to test hypotheses of between-group and within-group differences in outcomes.

[4] = test system: uterine leiomyomata; conditions: cited from earlier work
[5] = test system: endometrial receptors and breakthrough bleeding; conditions: women on Norplant, mifepristone orally; Cheng et al.; cited from earlier work
[6] = biological target: glucocorticosteroid receptor (GR) (Homo sapiens, UniProt P04150); conditions: cited from earlier work
Chain of glucocorticosteroid receptor (GR) (P04150 whole entry): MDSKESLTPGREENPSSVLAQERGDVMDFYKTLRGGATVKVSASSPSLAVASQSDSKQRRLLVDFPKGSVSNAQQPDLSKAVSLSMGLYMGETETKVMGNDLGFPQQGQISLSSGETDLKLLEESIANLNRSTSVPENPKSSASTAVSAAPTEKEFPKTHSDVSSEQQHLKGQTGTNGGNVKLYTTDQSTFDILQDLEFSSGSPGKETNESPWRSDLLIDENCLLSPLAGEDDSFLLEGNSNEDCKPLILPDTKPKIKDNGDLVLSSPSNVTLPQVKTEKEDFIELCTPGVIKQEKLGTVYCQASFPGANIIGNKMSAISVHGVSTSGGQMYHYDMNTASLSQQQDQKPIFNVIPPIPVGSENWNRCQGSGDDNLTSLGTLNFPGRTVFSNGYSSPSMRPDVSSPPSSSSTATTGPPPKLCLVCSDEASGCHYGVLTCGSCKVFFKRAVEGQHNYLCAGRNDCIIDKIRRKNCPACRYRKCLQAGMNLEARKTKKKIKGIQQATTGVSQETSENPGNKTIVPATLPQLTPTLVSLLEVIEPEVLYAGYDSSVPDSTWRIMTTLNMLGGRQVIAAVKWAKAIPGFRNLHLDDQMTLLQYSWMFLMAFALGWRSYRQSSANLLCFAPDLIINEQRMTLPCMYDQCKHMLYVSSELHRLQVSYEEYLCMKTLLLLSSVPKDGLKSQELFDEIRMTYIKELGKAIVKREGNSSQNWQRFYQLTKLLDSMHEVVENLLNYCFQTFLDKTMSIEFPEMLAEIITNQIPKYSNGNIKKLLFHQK

Compound: CC#C[C@]1(O)CC[C@H]2[C@@H]3CCC4=CC(=O)CCC4=C3[C@@H](c3ccc(N(C)C)cc3)C[C@@]21C [mifepristone, 17-hydroxy-11-(4-dimethylaminophenyl)-17-(prop-1-ynyl)estra-4,9-dien-3-one]
- amenorrhea [1]: all subjects became amenorrheic
- mean decrease in leiomyomata volume [1]: 26%
- mean decrease in uterine volume [1]: 19%
- mean leiomyomata volume (aggregated) after treatment ([1]; baseline 187): 139
- mean uterine volume after treatment ([1]; baseline 795 cc): 653 cc
- median percentage days of bleeding ([2]; 1232 women-days, placebo 30%, p<0.05, results to date): 11%
- adverse events ([2]; to date): no adverse events have occurred
- period in which most of the improvement in symptoms and quality of life occurred ([3]; 5 mg daily for 26 weeks, first weeks of treatment): 8-12 weeks
- SF-36 subscales ([3]; 5 mg daily, 6 months): improvements in energy and fatigue, health status change, and pain
- endometrial hyperplasia or other significant endometrial pathology ([3]; 5 mg daily, 6 months): No endometrial hyperplasia or other significant endometrial pathology was observed
- liver function ([3]; 5 mg daily, 6 months): None of the participants showed abnormal liver function
- reduction in leiomyoma size vs placebo ([3]; 5 mg daily, 6 months): statistically significant differences in reduction in leiomyoma size
- leiomyoma-specific quality of life and aspects (concern, activities, energy and mood, control, self-consciousness, sexual functioning) vs placebo ([3]; 5 mg daily, 6 months, P<0.001 overall): Significant improvements
- average decrease of uterine volume ([3]; 5 mg daily, 6 months, P=0.02, placebo increased 73 mL): 200 mL
- pain, McGill Pain Questionnaire ([3]; 5 mg daily, 6 months, difference to placebo not statistically significant): decreases in pain
- mean hemoglobin level after treatment ([3]; 5 mg daily, 6 months, from 12.0 g/dL, P<0.001): 13.5 g/dL
- potential medication adverse effects ([3]; 5 mg daily, 6 months, incidence and severity not statistically different from placebo): uncommon
- tolerability ([3]; 5 mg daily, 6 months, low dropout rate): well tolerated
- bleeding ([3]; 5 mg daily, 6 months, not in placebo group): decreased markedly
- mean Uterine Fibroid Symptoms Quality of Life increase ([3]; 5 mg daily, 6 months, of a possible 100 points, range 0-86, placebo 16.7): 50.1 points
- mean Uterine Fibroid Symptoms Quality of Life increase, percent ([3]; 5 mg daily, 6 months, placebo 41%): 135%
- average decrease of uterine volume adjusted for individual baseline volume ([3]; 5 mg daily, 6 months, secondary regression, placebo increased 10%): 47%
- cystic glandular dilatation of the endometria ([3]; 5 mg daily, 6 months, treated women vs placebo): Higher rates
- women anemic (hemoglobin below 12.0 g/dL) after six months ([3]; 5 mg daily, 2 of 22, baseline 11 of 22 (50%), control 60%): 9%
- women amenorrheic by the sixth month ([3]; 5 mg daily, 9 of 22 women, none in placebo group): 41%
- symptom severity score at 6 months ([3]; 5 mg daily, from 67 at baseline, placebo 67 to 50): 21
- monthly reports of symptoms (pelvic pain, pelvic pressure, bladder pressure, urinary frequency, low back pain, rectal pain, pain with intercourse) ([3]; 5 mg daily, group difference significant only for pain with intercourse (P<0.05)): all showed improvements
- effectiveness ([4]; 5 mg administered for 6 months, Eisinger et al.): confirmed the effectiveness
- uterine leiomyomata size ([4]; Eisinger et al. 2003): reduce uterine leiomyomata size
- uterine shrinkage and rates of amenorrhea compared with GnRH agonists ([4]; Kettel et al., Murphy et al.): equivalent amount of uterine shrinkage and rates of amenorrhea to GnRH agonists
- side effects of the lower described doses ([4]; doses such as 10 mg): increased hot flashes
- side effects of the highest described doses ([4]; doses such as 50 mg): can increase the prevalence and severity of hot flashes, can cause an elevation in hepatic enzymes
- breakthrough bleeding [5]: decreased breakthrough bleeding
- endometrial estrogen receptor concentration [5]: increased endometrial estrogen receptor concentration
- endometrial progesterone receptor concentration [5]: decreased endometrial progesterone receptor concentration
- affinity for the glucocorticosteroid receptor (GR) [6]: high affinity

— patent publication US8173626B2, “Methods, dosing regimens and medications using anti-progestational agents for the treatment of disorders” (Danco Laboratories LLC, priority 2006, dated 2012)
